{"source": "paper PMC3167814", "about": "“Relationships between Membrane Binding, Affinity and Cell Internalization Efficacy of a Cell-Penetrating Peptide: Penetratin as a Case Study” (PLoS ONE, 2011)", "key": {"[1]": {"assay": "PWR, synthetic lipid model membrane", "format": "binding", "conditions": "hyperbolic fit, apparent Kd, repeated 3 times", "source_text": "To get some insight into the role of the lipid component in the cell surface regarding penetratin interaction, lipid model systems composed of varied lipid composition were used. Both zwitterionic (egg PC), anionic (egg PG -phosphatidylglycerol-and egg PC/DOPG -phosphatidylglycerol/dioleoylphosphatidylglycerol-) and lipids with propensity to form negative membrane curvature (egg PC/DOPE -dioleoylphosphatidylethanolamine-) were chosen in order to understand the role of electrostatic interactions and membrane curvature in the interaction of penetratin with the lipid bilayer. For all the lipid systems, penetratin interaction led to spectral shifts in both the p- and s-polarisation. As in the case of cell membrane fragments studies, presented above, two distinct responses were observed depending on the membrane composition: 1) in the case of egg PC and egg PC/DOPE, a two phase binding process with negative shifts followed by positive shifts (for both polarizations) which equilibrated after certain concentrations were observed; 2) in the case of egg PG, egg PC/POPG (1-palmitoyl-2-oleoyl-sn-glycero-3-phospho-(1′-rac-glycerol)), penetratin led to a single binding process with positive shifts for both polarizations (see Table 1 for the direction and magnitude of the spectral shifts). […] The electrostatic interaction played an important role in penetratin interaction with the membrane, but was not the only relevant factor, the shape of the lipid headgroup and/or the lipid curvature seemed to also play a key role in (this will be further discussed below).\nFor the membrane interaction where two binding processes were observed, as in the case of egg PC, egg PC/DOPE, the first binding was associated with negative spectral shifts for both p- and s-polarizations, which corresponded mainly to mass changes (90–100%). […] In the case where only one binding event was observed (egg PG and egg PC/DOPG) mass changes again dominated the spectral changes (85 to 91%) (Table 5).\nHere, the graphical analysis method was employed.\n(§1) The sensitivity factor (Sf), a measure of the sensitivity of the instrument for the s- pol relative to p-pol ( [drawing 2] ), necessary to determine the mass and anisotropy axes has been determined, for the prism used in those experiments, to be 1.35 [46]."}, "[2]": {"system": "SA^neg cell membrane fragments", "assay": "PWR, lipid bilayer composed of cell membrane fragments", "format": "binding, Chinese Hamster", "conditions": "SA^neg membrane fragments in egg PC planar bilayer; PWR shifts on incremental peptide addition, hyperbolic fit, apparent Kd; repeated 3 times", "source_text": "(§2) Homogenized membranes were obtained by osmotic and mechanical disruption of cells. A method to deposit cell membrane fragments on the PWR cell sample was developed as follows. The deposition of a membrane composed of cell membrane fragments into the PWR resonator led to spectral changes, namely large positive spectral shifts for both p- and s-polarizations relative to the buffer spectrum (Figure 2, panels A and B) indicating the immobilization of a significant amount of mass on the sensor surface. It should be noted that the shifts obtained for p-pol were considerably larger than the ones obtained for s-pol (s/p ratio about 0.7).\n(§3) Regarding the direction of the PWR spectral shifts, two types of behavior were observed depending on the membrane composition: 1) in the case of GAG^neg cells, penetratin led to a two phase binding process with negative shifts followed by positive shifts (for both polarizations) which equilibrated after certain concentrations; 2) in the case of WT and SA^neg cells, penetratin led to a single binding process with positive shifts for both polarizations (see panels C and D in Figure 2 for penetratin interaction with WT cell membranes and Table 1 for the direction and magnitude of the spectral shifts). […] Penetratin affinity to lipid bilayers and membrane fragments could be calculated using PWR by measuring the resonance minimum position shifts upon incremental addition of peptide to the cell sample [39]. […]\n(§4) The kinetics of penetratin interaction with the membrane was determined by following the shift in the resonance minimum position as a function of time for a peptide concentration slightly above the Kd value. […] Rate constants were determined for the second part of the signal (the resonance angle increase) and varied upon membrane composition (Figure 2 and Table 3). […]\nas §1"}, "[3]": {"system": "WT cell membrane fragments", "assay": "PWR, lipid bilayer composed of cell membrane fragments", "format": "binding, Chinese Hamster", "conditions": "WT membrane fragments in egg PC planar bilayer; PWR shifts on incremental peptide addition, hyperbolic fit, apparent Kd; repeated 3 times", "source_text": "as §2, §3, §4, §1"}, "[4]": {"system": "GAG^neg cell membrane fragments", "assay": "PWR, lipid bilayer composed of cell membrane fragments", "format": "binding, Chinese Hamster", "conditions": "GAG^neg membrane fragments in egg PC planar bilayer; PWR shifts on incremental peptide addition, hyperbolic fit, apparent Kd; repeated 3 times", "source_text": "as §2, §3, §4, §1"}, "[5]": {"system": "Wild type Chinese Hamster Ovary CHO-K1 cells (WT)", "procedure": "(§5) As already reported, the quantity or concentration of internalized and membrane-bound penetratin could be differentiated and measured by MALDI mass spectrometry, [33], [34]. […] Using the reported protocol, the amount of internalized penetratin was quantified in one million cells that were incubated with 1 or 10 µM penetratin for one hour. After washing steps, the extracellular membrane-bound peptide was degraded by trypsin digestion, [33], [34] so that only the internalized peptide was quantified. […] The extracellular concentration could not be lowered further because of the lack of sensitivity of the MALDI-MS method for accurate measurements of sub-picomole quantities of penetratin.\n(§6) Wild type Chinese Hamster Ovary CHO-K1 cells (WT), xylosetransferase- or GAG-deficient CHO-pgsA745 [59] cells (GAG^neg) and sialic acid deficient CHO-lec2 [60] cells (SA^neg) were cultured in Dulbecco's modified Eagle's medium (DMEM) supplemented with 10% fetal calf serum (FCS), penicillin (100,000 IU/L), streptomycin (100,000 IU/L), and amphotericin B (1 mg/L) in a humidified atmosphere containing 5% CO2 at 37°C.\n(§7) Cellular uptake was quantified using the method described by Burlina et al.. In this protocol, the studied peptide bears a tag composed of four glycine residues together with a biotin moiety for purification purposes. After one-hour incubation with the peptide and washing, a protease is added (0.05% trypsin in Tris-HCl 100 mM pH 7.5) in order to detach the cells and to degrade the membrane-bound peptide. This avoids overestimating the quantity of internalized peptide due to the presence of peptides attached to the outer leaflet of the membrane. The cells are then lysed (0.3% Triton) and boiled, and the cell lysate is incubated with streptavidin-coated magnetic beads to extract the peptide from the lysate. For membrane-bound peptide quantification, washings but no protease digestion was done and the cells were directly lysed. The peptides are eluted from the streptavidin-coated magnetic beads with a α-cyano-4-hydroxycinnamic acid matrix and spotted on the MALDI plate. Mass spectrometry is not a quantitative method per se, therefore an internal standard is added to the lysis solution. […] This allows the absolute quantification of internalized and membrane-bound peptide. […] The experiments were repeated at least three times independently."}, "[6]": {"system": "sialic acid deficient CHO-lec2 cells (SA^neg)", "procedure": "as §5, §6, §7"}, "[7]": {"system": "GAG-deficient CHO-pgsA745 cells (GAG^neg)", "procedure": "as §5, §6, §7"}, "[8]": {"conditions": "1 µM extracellular biotin-Gly4-tagged penetratin, one million cells, 1 h incubation, washings, trypsin degradation of membrane-bound peptide, MALDI-TOF MS with deuterated internal standard, repeated at least three times"}, "[9]": {"conditions": "1 µM extracellular, 1 h, from internalized amount provided a cell volume of 1 pL"}}, "data": [{"substance": "H-RQIKIWFQNRRMKWKK-NH2 [penetratin, Penetratin]", "values": [{"measurement": "Kd", "setting": "[1]; Egg PC bilayer", "result": "28000 ± 2000", "unit": "nM"}, {"measurement": "Kd", "setting": "[1]; Egg PC/DOPE bilayer", "result": "500 ± 10", "unit": "nM"}, {"measurement": "Kd", "setting": "[1]; Egg PC/DOPG bilayer", "result": "1400 ± 30", "unit": "nM"}, {"measurement": "Kd", "setting": "[1]; Egg PG bilayer", "result": "300 ± 20", "unit": "nM"}, {"measurement": "Kd", "setting": "[2]", "result": "300 ± 40", "unit": "nM"}, {"measurement": "Kd", "setting": "[3]", "result": "10 ± 3", "unit": "nM"}, {"measurement": "Kd", "setting": "[4]", "result": "2000 ± 600", "unit": "nM"}, {"measurement": "internalized peptide quantity", "setting": "[5]; [8]", "result": "about 0.25 pmole"}, {"measurement": "intracellular penetratin concentration", "setting": "[5]; [9]", "result": "about 0.25 µM"}, {"measurement": "internalized peptide quantity", "setting": "[6]; [8]", "result": "about 0.25 pmole"}, {"measurement": "intracellular penetratin concentration", "setting": "[6]; [9]", "result": "about 0.25 µM"}, {"measurement": "internalized peptide quantity", "setting": "[7]; [8]", "result": "about 0.25 pmole"}, {"measurement": "intracellular penetratin concentration", "setting": "[7]; [9]", "result": "about 0.25 µM"}]}]}
